This is an account of results in publication PMC7503713, “GANT61 Reduces Hedgehog Molecule (GLI1) Expression and Promotes Apoptosis in Metastatic Oral Squamous Cell Carcinoma Cells” (International Journal of Molecular Sciences, 2020).

Common to all, as to type: cell-based, human
One test deals with SHH protein. Put plainly: Western blot of HH pathway proteins in HSC3 cells, SHH. To be noted: HSC3, 18 and 36 µM, 24 h. As to the method: After culturing, HSC3 cells were washed with PBS and denatured by using cell lysis buffer containing 50 mM Tris-HCl (pH 7.4), 1% Triton X-100, 150 mM NaCl, 0.5 mM EGTA, 0.5 EDTA mM, and an anti-protease cocktail (Complete Pro-inhibitor Cocktail Tablets, Roche, Basel, Switzerland). Protein extracts (50 μg) were separated by SDS-PAGE and transferred to Hybond-C Extra (GE Healthcare, Chicago, IL, USA) nitrocellulose membranes. The following antibodies were used in the Western blot assay: mouse […] against Sonic Hedgehog (1:500, Clone 5 H4, Cat. number NBP2-22126, Novus Biologicals, Centennial, CO, USA), rabbit polyclonal against Gli1 (1:500, Novus Biologicals, Cat. number NB600-600), rabbit polyclonal against Patched 1 (1:500, Novus Biologicals, Cat.number NB200-118), and rabbit polyclonal against Smoothened (1:1000, Cat. number AB72130, Abcam, Cambridge, MA, USA). The secondary antibodies were anti-mouse IgG (1:10,000, Santa Cruz Biotechnology, Santa Cruz, CA, USA) and anti-rabbit IgG (1:10,000, GE Healthcare, Chicago, IL, USA). Signal detection was performed by using an ECL + Chemiluminescence Detection System (PerkinElmer, Villebon sur-Yvette, France). The antibody actin (1:10000, Cat. Number15 G5 A11/E2, Invitrogen, Carlsbad, CA, USA) was selected as an endogenous control for analysis of HH pathway component expression in HSC3 cells. […]
For orientation: Immunoblotting shows a protein as a band on a membrane.

The subject of a further test is SCC25. The test is described as follows: alamarBlue cytotoxicity assay, SCC25. Conditions: 72 h of incubation. As for the experimental part:
(§1) To assess the cytotoxicity of the GLI inhibitor GANT61 (Sigma-Aldrich, St. Louis, MO, USA) in tumor and non-tumor cell lines, an alamarBlue assay (Sigma-Aldrich Chemical Co, St. Louis, MO, USA) was performed after 72 h of exposure to the inhibitor, as described by Ahmed et al., 1994 [46]. Cells were distributed on 96-well plates at a density of 7 × 10^4 cells/mL for adhered cells, and 3 × 10^5 cells/mL for cells in suspension. All tested compounds were dissolved in DMSO, added to wells containing 100 µL of cells in complete medium, and then incubated for 72 h. Eight concentrations of GANT61 (0.19 to 50 µg/mL), Doxorubicin (Laboratory IMA S.A.I.C., Buenos Aires, Argentina), and 5-Fluorouracil (5-FU, Sigma-Aldrich, St. Louis, MO, USA), both used as positive controls at concentrations ranging from 0.03 to 5 µg/mL, were added to respective wells. […] Absorbance was measured at 570 nm (reduced) and 595 nm (oxidized) wavelengths, using a Spectramax 190 plate reader (Molecular Devices; Sunnyvale, CA, USA).
(§2) Statistical analyses were performed, using GraphPad Prism v. […] Data were analyzed according to distribution along the normal Gaussian curve. […] Differences between groups resulting from in vitro assays were evaluated by ANOVA (analysis of variance) testing, followed by the Student–Newman–Keuls test. […]
For orientation: Resazurin is reduced to fluorescent resorufin, in cell work by metabolically active cells.

In the next test the test system is AGP01. The test is described as follows: alamarBlue cytotoxicity assay, AGP01. To be noted: 72 h of incubation. As for the experimental part: as §1, §2
Another test concerns HT-29. The test is described as follows: alamarBlue cytotoxicity assay, HT-29. Conditions: HT-29, alamarBlue, 72 h of incubation. As for the experimental part: as §1, §2

Broadly, the IC50 is the concentration needed to halve the response being measured. `CN(C)c1ccccc1CN1CCCN(Cc2ccccc2N(C)C)C1c1ccncc1` [GANT61]: the SHH protein expression result with SHH protein is on record as “reduced levels”. The IC50 in the test on SCC25 is 53.3 µM; with AGP01 it was greater than 116 µM; in the test on HT-29, greater than 116 µM.
